# Target: SARS-CoV 3CL^pro (Severe acute respiratory syndrome coronavirus, UniProt P0C6X7)
# Type: biochemical
row,Structure (SMILES),Inhibition type
1,"O=c1cc(-c2ccc(O)c(-c3c(O)cc(O)c4c(=O)cc(-c5ccc(O)cc5)oc34)c2)oc2cc(O)cc(O)c12 [Compound 9, amentoflavone]",Noncompetitive (13.8 ± 1.5)
2,"COc1ccc(-c2cc(=O)c3c(O)cc(O)cc3o2)cc1-c1c(O)cc(O)c2c(=O)cc(-c3ccc(O)cc3)oc12 [Compound 10, bilobetin]",Noncompetitive (80.4 ± 4.0)
3,"COc1cc(O)c2c(=O)cc(-c3ccc(OC)c(-c4c(O)cc(O)c5c(=O)cc(-c6ccc(O)cc6)oc45)c3)oc2c1 [Compound 11, ginkgetin]",Noncompetitive (30.2 ± 2.6)
4,"COc1ccc(-c2cc(=O)c3c(O)cc(O)c(-c4cc(-c5cc(=O)c6c(O)cc(OC)cc6o5)ccc4OC)c3o2)cc1 [Compound 12, sciadopitysin]",Noncompetitive (35.6 ± 1.1)
